Results taken from US20260146035A1, “FUSED BICYCLIC COMPOUNDS AND THEIR USE AS MER AND AXL INHIBITORS” (DONG-A ST CO., LTD., priority 2022, published 2026).
Where two headings read alike, the source gives them in different places.

How the values were obtained:
[1] = biological target: T1, human TYRO3 (455-end) (Homo sapiens, UniProt Q06418); assay: HTRF kinase activity biochemical assay, TYRO3; conditions: 10 μM ATP, 30 minutes pre-incubation; read-out: HTRF TYRO IC50
T1 construct: TYRO3 (455-end); purchased SignalChem, Canada
T1 sequence (Q06418 455-890 limits assumed): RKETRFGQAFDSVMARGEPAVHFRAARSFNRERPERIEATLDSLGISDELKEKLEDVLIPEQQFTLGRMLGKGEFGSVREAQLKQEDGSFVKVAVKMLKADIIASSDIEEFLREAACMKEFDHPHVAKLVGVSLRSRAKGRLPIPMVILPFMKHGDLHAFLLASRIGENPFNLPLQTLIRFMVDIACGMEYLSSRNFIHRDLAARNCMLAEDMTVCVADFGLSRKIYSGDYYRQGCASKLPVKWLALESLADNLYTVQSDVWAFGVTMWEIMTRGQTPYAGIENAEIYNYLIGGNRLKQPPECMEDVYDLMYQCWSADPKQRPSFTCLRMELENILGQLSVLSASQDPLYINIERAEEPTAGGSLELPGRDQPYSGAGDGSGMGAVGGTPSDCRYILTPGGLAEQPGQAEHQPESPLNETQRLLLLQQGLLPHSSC

[2] = test system: phospho-MerTK in BaF3.MerTK tumors; assay: In vivo Ba/F3 pMER ALISA assay; conditions: orally; for % inhibition: 50 milligrams per kilogram, single dose, tumors harvested 4 hours after, phospho-MerTK normalized to total MerTK; for % inhibition in the in vivo Ba/F3 pMer ALISA Assay: as shown in Tables 3 and 4: 50 milligrams per kilogram
Description: BaF3.MerTK tumor cells were mixed with 50% Matrigel (BD, Franklin Lakes, NJ). […] Tumors were allocated into dose groups at 10 to 11 days post tumor cell inoculation, when they were roughly 250-400 mm^3 in size. Test compounds were formulated in 10% ethanol, 30% PEG-400, and 60% Phosal-50PG, for oral dosing at 0.2 mL per dose per mouse. Plasma and tumors were harvested 4 hours after a single dose. Ba/F3 tumors were harvested into 2 mL Precellys CKmix tubes, snap frozen in liquid nitrogen, and stored at −80° C. overnight. […] Precellys tubes were then centrifuged at >18,000 g for 20 minutes at 4° C. and the supernatant was collected on ice. The lysate was then centrifuged again at >18,000 g for 10 minutes at 4° C. to remove any residual debris. […] Plates were then frozen at −80° C. overnight.

[3] = biological target: T2, human MER (528-end) (Homo sapiens, UniProt Q12866); assay: HTRF kinase activity biochemical assay, MER
T2 construct: human MER (528-end); purchased Camnabio, Japan
T2 sequence (Q12866 528-999 limits assumed): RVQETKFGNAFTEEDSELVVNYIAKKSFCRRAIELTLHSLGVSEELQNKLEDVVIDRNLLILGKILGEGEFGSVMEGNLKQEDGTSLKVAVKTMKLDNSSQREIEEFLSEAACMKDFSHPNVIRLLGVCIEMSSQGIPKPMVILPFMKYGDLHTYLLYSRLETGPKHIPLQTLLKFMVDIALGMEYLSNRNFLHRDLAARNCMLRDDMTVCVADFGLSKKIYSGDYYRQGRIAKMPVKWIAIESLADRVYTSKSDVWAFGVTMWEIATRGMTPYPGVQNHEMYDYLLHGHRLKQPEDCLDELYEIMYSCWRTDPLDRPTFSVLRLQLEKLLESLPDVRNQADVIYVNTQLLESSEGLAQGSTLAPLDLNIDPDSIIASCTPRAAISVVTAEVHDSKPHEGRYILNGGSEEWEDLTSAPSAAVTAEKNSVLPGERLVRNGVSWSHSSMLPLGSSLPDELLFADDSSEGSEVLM

[4] = biological target: T3, human AXL (473-end) (Homo sapiens, UniProt P30530); assay: HTRF kinase activity biochemical assay, AXL
T3 construct: human AXL (473-end); purchased SignalChem, Canada
T3 sequence (P30530 473-894 limits assumed): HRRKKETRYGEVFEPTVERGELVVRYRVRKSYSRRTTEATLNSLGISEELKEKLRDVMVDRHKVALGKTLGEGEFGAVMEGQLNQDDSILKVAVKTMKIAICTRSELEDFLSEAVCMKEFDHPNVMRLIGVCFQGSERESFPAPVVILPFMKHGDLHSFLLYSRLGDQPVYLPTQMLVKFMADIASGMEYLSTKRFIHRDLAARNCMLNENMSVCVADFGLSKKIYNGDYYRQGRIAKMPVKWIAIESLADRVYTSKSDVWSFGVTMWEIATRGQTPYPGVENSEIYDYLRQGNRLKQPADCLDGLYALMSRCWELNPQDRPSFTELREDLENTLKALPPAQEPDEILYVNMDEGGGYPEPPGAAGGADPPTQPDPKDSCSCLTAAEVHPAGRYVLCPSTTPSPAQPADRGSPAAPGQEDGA

[5] = 10 μM ATP, 30 minutes pre-incubation, read-out: HTRF MERTK IC50
[6] = 10 μM ATP, 30 minutes pre-incubation
[7] = in vitro, read-out: HTRF MerTK IC50

| SMILES | IC50 [1] [nM] | IC50 [3, 5] [nM] | IC50 [4, 6] [nM] | IC50 [3, 7] [nM] | IC50 ([4]; in vitro) [nM] | % inhibition [2] [%] | % inhibition in the in vivo Ba/F3 pMer ALISA Assay [2] [%] |
| --- | --- | --- | --- | --- | --- | --- | --- |
| CN1CCN([C@H]2CC(C)(C)c3cc(-c4ccc(CO[C@H]5CCC[C@@H]5NC(=O)c5cc(-c6cnn(C)c6)cnc5N)cc4)ccc32)CC1 [Example 144, 2-amino-N-[(1S,2S)-2-({4-[(1S)-3,3-dimethyl-1-(4-methylpiperazin-1-yl)-2,3-dihydro-1H-inden-5-yl]phenyl}methoxy)cyclopentyl]-5-(1-methyl-1H-pyrazol-4-yl)pyridine-3-carboxamide] | < 10 | < 10 | < 10 |  |  | 93 |  |
| Cn1cc(-c2cnc(N)c(C(=O)N[C@H]3CCC[C@@H]3OCc3ccc(-c4ccc5c(c4)C(C)(C)C[C@@H]5N4CCN(CCO)CC4)cc3)c2)cn1 [Example 103, 2-amino-N-{(1S,2S)-2-[(4-{(1S)-1-[4-(2-hydroxyethyl)piperazin-1-yl]-3,3-dimethyl-2,3-dihydro-1H-inden-5-yl}phenyl)methoxy]cyclopentyl}-5-(1-methyl-1H-pyrazol-4-yl)pyridine-3-carboxamide] | < 10 | < 10 | < 10 | < 10 | < 10 | 74 | 74 |
| Nc1ncc(-c2ccc(F)nc2)cc1C(=O)N[C@H]1CCC[C@@H]1OCc1ccc(-c2ccc3c(c2)CC[C@@H]3N2CCN(CCO)CC2)cc1 [Example 46, 6-amino-6′-fluoro-N-{(1S,2S)-2-[(4-{(1S)-1-[4-(2-hydroxyethyl)piperazin-1-yl]-2,3-dihydro-1H-inden-5-yl}phenyl)methoxy]cyclopentyl}[3,3′-bipyridine]-5-carboxamide] | 10 to 100 | < 10 | < 10 |  |  | 37 |  |
| CN1CCN(C2CCCc3cc(-c4ccc(CO[C@H]5CCC[C@@H]5NC(=O)c5cc(-c6cnn(C)c6)cnc5N)cc4)ccc32)CC1 (stereo partly drawn) [Example 120, 2-amino-N-[(1S,2S)-2-({4-[5-(4-methylpiperazin-1-yl)-5,6,7,8-tetrahydronaphthalen-2-yl]phenyl}methoxy)cyclopentyl]-5-(1-methyl-1H-pyrazol-4-yl)pyridine-3-carboxamide] | 10 to 100 | < 10 | < 10 |  |  | 67 |  |
| Nc1ncc(-c2cccnc2F)cc1C(=O)N[C@H]1CCC[C@@H]1OCc1ccc(-c2ccc3c(c2)CC[C@@H]3N2CCN3C[C@H](O)C[C@H]3C2)cc1 [Example 160, 6-amino-2′-fluoro-N-{(1S,2S)-2-[(4-{(1S)-1-[(7R,8aS)-7-hydroxyhexahydropyrrolo[1,2-a]pyrazin-2 (1H)-yl]-2,3-dihydro-1H-inden-5-yl}phenyl)methoxy]cyclopentyl}[3,3′-bipyridine]-5-carboxamide] | 10 to 100 | < 10 | < 10 |  |  | 75 |  |
| Nc1ncc(-c2ccc(F)nc2)cc1C(=O)N[C@H]1CCC[C@@H]1OCc1ccc(-c2ccc3c(c2)CC[C@@H]3N2CCN3C[C@H](O)C[C@H]3C2)cc1 [Example 117, 6-amino-6′-fluoro-N-{(1S,2S)-2-[(4-{(1S)-1-[(7R,8aS)-7-hydroxyhexahydropyrrolo[1,2-a]pyrazin-2 (1H)-yl]-2,3-dihydro-1H-inden-5-yl}phenyl)methoxy]cyclopentyl}[3,3′-bipyridine]-5-carboxamide] | 100 to 1000 | < 10 | < 10 |  |  | 64 |  |
| CN1CCN(C2CC(C)(C)c3cc(-c4ccc(CO[C@H]5CCC[C@@H]5NC(=O)c5cc(-c6cnn(C)c6)cnc5N)cc4)ccc32)CC1 (stereo partly drawn) [Example 93, 2-amino-N-[(1S,2S)-2-({4-[3,3-dimethyl-1-(4-methylpiperazin-1-yl)-2,3-dihydro-1H-inden-5-yl]phenyl}methoxy)cyclopentyl]-5-(1-methyl-1H-pyrazol-4-yl)pyridine-3-carboxamide] | < 10 | < 10 | < 10 |  |  | 53 |  |
| Cn1cc(-c2cnc(N)c(C(=O)N[C@H]3CCC[C@@H]3OCc3ccc(-c4ccc5c(c4)C(C)(C)CC5N4CCN(CCO)CC4)cc3)c2)cn1 (stereo partly drawn) [Example 83, 2-amino-N-{(1S,2S)-2-[(4-{1-[4-(2-hydroxyethyl)piperazin-1-yl]-3,3-dimethyl-2,3-dihydro-1H-inden-5-yl}phenyl)methoxy]cyclopentyl}-5-(1-methyl-1H-pyrazol-4-yl)pyridine-3-carboxamide] | < 10 | < 10 | < 10 | < 10 | < 10 | 58 | 58 |
| Cn1cc(-c2cnc(N)c(C(=O)N[C@H]3CCC[C@@H]3OCc3ccc(-c4ccc5c(c4)CC[C@@H]5N4CCN5C[C@H](O)C[C@H]5C4)cc3)c2)cn1 [Example 161, 2-amino-N-{(1S,2S)-2-[(4-{(1S)-1-[(7R,8aS)-7-hydroxyhexahydropyrrolo[1,2-a]pyrazin-2 (1H)-yl]-2,3-dihydro-1H-inden-5-yl}phenyl)methoxy]cyclopentyl}-5-(1-methyl-1H-pyrazol-4-yl)pyridine-3-carboxamide] | 10 to 100 | < 10 | < 10 |  |  | 85 |  |

More lines, main results first:

| IC50 [1] [nM] | IC50 [3, 5] [nM] | IC50 [4, 6] [nM] | IC50 [3, 7] [nM] | IC50 ([4]; in vitro) [nM] | SMILES | % inhibition [2] [%] | % inhibition in the in vivo Ba/F3 pMer ALISA Assay [2] [%] |
| --- | --- | --- | --- | --- | --- | --- | --- |
| 10 to 100 | < 10 | < 10 |  |  | CC1(C)C[C@H](N2CCN(CCO)CC2)c2ccc(-c3ccc(CO[C@H]4CCC[C@@H]4NC(=O)c4cc(-c5cccnc5F)cnc4N)cc3)cc21 [Example 159, 6-amino-2′-fluoro-N-{(1S,2S)-2-[(4-{(1S)-1-[4-(2-hydroxyethyl)piperazin-1-yl]-3,3-dimethyl-2,3-dihydro-1H-inden-5-yl}phenyl)methoxy]cyclopentyl}[3,3′-bipyridine]-5-carboxamide] | 89 |  |
| < 10 | < 10 | < 10 |  |  | Cn1cc(-c2cnc(N)c(C(=O)N[C@H]3CCC[C@@H]3OCc3ccc(-c4ccc5c(c4)C(C)(C)C[C@@H]5N4CCN(C[C@H](O)CO)CC4)cc3)c2)cn1 [Example 169, 2-amino-N-[(1S,2S)-2-({4-[(1S)-1-{4-[(2S)-2,3-dihydroxypropyl]piperazin-1-yl}-3,3-dimethyl-2,3-dihydro-1H-inden-5-yl]phenyl}methoxy)cyclopentyl]-5-(1-methyl-1H-pyrazol-4-yl)pyridine-3-carboxamide] | 76 |  |
| < 10 | < 10 | < 10 |  |  | Nc1ncc(-c2cccnc2F)cc1C(=O)N[C@H]1CCC[C@@H]1OCc1ccc(-c2ccc3c(c2)CCC[C@@H]3N2CCN(CCO)CC2)cc1 [Example 165, 6-amino-2′-fluoro-N-{(1S,2S)-2-[(4-{(5S)-5-[4-(2-hydroxyethyl)piperazin-1-yl]-5,6,7,8-tetrahydronaphthalen-2-yl}phenyl)methoxy]cyclopentyl}[3,3′-bipyridine]-5-carboxamide] | 92 |  |
| 10 to 100 | < 10 | < 10 |  |  | CC1(C)C[C@H](N2CCN(C[C@H](O)CO)CC2)c2ccc(-c3ccc(CO[C@H]4CCC[C@@H]4NC(=O)c4cc(-c5cccnc5F)cnc4N)cc3)cc21 [Example 168, 6-amino-N-[(1S,2S)-2-({4-[(1S)-1-{4-[(2S)-2,3-dihydroxypropyl]piperazin-1-yl}-3,3-dimethyl-2,3-dihydro-1H-inden-5-yl]phenyl}methoxy)cyclopentyl]-2′-fluoro[3,3′-bipyridine]-5-carboxamide] | 74 |  |
